Data as given in ChEMBL document CHEMBL5236544, “Furazans in Medicinal Chemistry” (J Med Chem, 2021).
One block for each molecule: values may come before it.

Assays:
[1] = Inhibition of GSK3 (unknown origin); parameters: species or system Homo sapiens
[2] = Inhibition of p70S6K (unknown origin); parameters: species or system Homo sapiens
[3] = target: Ribosomal protein S6 kinase alpha-1 (Homo sapiens, UniProt Q15418); assay: Inhibition of RSK1 (unknown origin)
[4] = Inhibition of HIF (unknown origin); parameters: species or system Homo sapiens
[5] = Binding affinity to human wild type HIF2alpha assessed as dissociation constant by calorimetry assay
[6] = physchem; details: octanol/water
Description: Lipophilicity, log P of the compound

[7] = tested on: Rattus norvegicus; assay: Antihypertensive activity in spontaneously hypertensive rat model assessed as change in blood pressure at 1 mg/kg, po measured after 10 hrs; type: functional
[8] = tested on: Rattus norvegicus; assay: Antihypertensive activity in spontaneously hypertensive rat model assessed as change in heart rate at 10 mg/Kg, po measured after 6 hrs; type: functional
[9] = tested on: Rattus norvegicus; assay: Antihypertensive activity in spontaneously hypertensive rat model assessed as change in blood pressure at 1 mg/kg, po measured after 3 hrs; type: functional
[10] = tested on: Rattus norvegicus; assay: Antihypertensive activity in spontaneously hypertensive rat model assessed as change in heart rate at 1 umol/kg, po measured after 3 hrs; type: functional
[11] = tested on: Rattus norvegicus; assay: Antihypertensive activity in spontaneously hypertensive rat model assessed as change in heart rate at 1 mmol/Kg, po measured after 10 hrs; type: functional
[12] = target: T1, Amyloid-beta precursor protein (Homo sapiens, UniProt P05067); assay: Inhibition of amyloid beta 42 in human H4 cells; type: cell-based
[13] = Inhibition of LPS induced TNF-alpha secretion in human THP-1 cells pretreated with LPS for 1 hr followed by compound addition and measured after 3 hrs by ELISA method; type: functional, cell-based
[14] = Inhibition of MAPK p38 (unknown origin); parameters: species or system Homo sapiens
[15] = target: T1, Amyloid-beta precursor protein; assay: Inhibition of amyloid beta (unknown origin) aggregation at 10 uM relative to control
[16] = tested on: HASMC; assay: Antiproliferative activity against human HASMC cells assessed as inhibition of cell proliferation measured after 24 hrs by MTT assay; type: functional, cell-based
[17] = species: Rattus norvegicus; assay: Antihypertensive activity in spontaneously hypertensive rat model assessed as reduction in pulmonary arterial pressure; type: functional
[18] = species: Rattus norvegicus; assay: Antihypertensive activity in spontaneously hypertensive rat model assessed as reduction in systemic arterial pressure; type: functional
[19] = tested on: HCT-116; assay: Antiproliferative activity against human HCT-116 cells assessed as reduction in cell viability by MTT assay; type: functional, cell-based
[20] = tested on: Jurkat; assay: Antiproliferative activity against human Jurkat cells assessed as reduction in cell viability measured after 48 hrs by MTT assay; type: functional, cell-based
[21] = tested on: K562; assay: Antiproliferative activity against human K562 cells assessed as reduction in cell viability measured after 48 hrs by MTT assay; type: functional, cell-based; details: K562, 48 h
[22] = tested on: HEL; assay: Antiproliferative activity against human HEL cells assessed as reduction in cell viability measured after 48 hrs by MTT assay; type: functional, cell-based
[23] = Half life in mouse; type: ADME, organism-based; details: in vivo
[24] = tested on: NT2; assay: Inhibition of camptothecin induced apoptosis in human NT2 cells incubated for 5 hrs in presence of camptothecin by ELISA method; type: functional, cell-based; details: NT2, 5 h
[25] = Inhibition of ROMK (unknown origin); parameters: species or system Homo sapiens
[26] = Dissociation constant, pKa of compound; type: physicochemical
[27] = target: Prostaglandin G/H synthase 2 (Homo sapiens, UniProt P35354); assay: Inhibition of COX2 (unknown origin)
[28] = tested on: HCT-116; assay: cells; details: Homo sapiens
[29] = Lipophilicity, log D of compound at pH 7.4; type: physicochemical; details: buffer
[30] = target: Aldo-keto reductase family 1 member C3 (Homo sapiens, UniProt P42330); assay: Inhibition of AKR1C3 (unknown origin)
[31] = target: Prostaglandin G/H synthase 1 (Homo sapiens, UniProt P23219); assay: Inhibition of COX1 (unknown origin)
[32] = tested on: LNCaP; assay: Antiproliferative activity against human LNCaP cells assessed as reduction in cell viability; type: functional, cell-based
[33] = tested on: HT-29; assay: cells; details: Homo sapiens
Description: Antiproliferative activity against human HT-29 cells assessed as reduction in cell viability

[34] = target: Caspase-1 (Homo sapiens, UniProt P29466); assay: Inhibition of caspase-1 (unknown origin)
[35] = target: Caspase-3 (Homo sapiens, UniProt P42574); assay: Inhibition of caspase-3 (unknown origin)
[36] = target: Caspase-7 (Homo sapiens, UniProt P55210); assay: Inhibition of caspase-7 (unknown origin)
[37] = Drug concentration in ipsilateral striatum of malonate induced huntington disease rat measured after 24 hrs by LC/MS-MS analysis; type: ADME, tissue-based; details: read-out: Ct
[38] = Half life in Malonate induced Huntington disease rat; type: ADME; details: in vivo
[39] = target: Caspase-8 (Homo sapiens, UniProt Q14790); assay: Inhibition of caspase-8 (unknown origin)
[40] = Cmax in Malonate induced Huntington disease […] model at 1.5 nmol administered intra striatal measured for 1 hr by LC/MS-MS analysis; type: ADME; parameters: time 1 hrs, dose 1.5 nmol; details: in vivo
[41] = Drug concentration in ipsilateral striatum of malonate induced huntington disease rat measured after 6 hrs by LC/MS-MS analysis; type: ADME, tissue-based; details: read-out: Ct
[42] = target: Histamine H2 receptor (Homo sapiens, UniProt P25021); assay: Antagonist activity at histamine H2 receptor (unknown origin) assessed as inhibition constant
Sequence of Histamine H2 receptor (P25021 whole entry): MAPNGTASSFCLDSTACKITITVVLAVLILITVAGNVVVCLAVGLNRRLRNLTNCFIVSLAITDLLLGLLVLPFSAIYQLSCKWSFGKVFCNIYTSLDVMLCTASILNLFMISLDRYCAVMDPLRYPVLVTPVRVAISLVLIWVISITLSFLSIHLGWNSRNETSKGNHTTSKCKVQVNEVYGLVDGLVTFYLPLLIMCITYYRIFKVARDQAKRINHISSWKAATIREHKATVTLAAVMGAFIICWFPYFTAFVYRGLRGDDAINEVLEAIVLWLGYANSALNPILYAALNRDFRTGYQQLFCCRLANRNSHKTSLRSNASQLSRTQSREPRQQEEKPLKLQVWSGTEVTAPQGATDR

T1 sequence (P05067 whole entry): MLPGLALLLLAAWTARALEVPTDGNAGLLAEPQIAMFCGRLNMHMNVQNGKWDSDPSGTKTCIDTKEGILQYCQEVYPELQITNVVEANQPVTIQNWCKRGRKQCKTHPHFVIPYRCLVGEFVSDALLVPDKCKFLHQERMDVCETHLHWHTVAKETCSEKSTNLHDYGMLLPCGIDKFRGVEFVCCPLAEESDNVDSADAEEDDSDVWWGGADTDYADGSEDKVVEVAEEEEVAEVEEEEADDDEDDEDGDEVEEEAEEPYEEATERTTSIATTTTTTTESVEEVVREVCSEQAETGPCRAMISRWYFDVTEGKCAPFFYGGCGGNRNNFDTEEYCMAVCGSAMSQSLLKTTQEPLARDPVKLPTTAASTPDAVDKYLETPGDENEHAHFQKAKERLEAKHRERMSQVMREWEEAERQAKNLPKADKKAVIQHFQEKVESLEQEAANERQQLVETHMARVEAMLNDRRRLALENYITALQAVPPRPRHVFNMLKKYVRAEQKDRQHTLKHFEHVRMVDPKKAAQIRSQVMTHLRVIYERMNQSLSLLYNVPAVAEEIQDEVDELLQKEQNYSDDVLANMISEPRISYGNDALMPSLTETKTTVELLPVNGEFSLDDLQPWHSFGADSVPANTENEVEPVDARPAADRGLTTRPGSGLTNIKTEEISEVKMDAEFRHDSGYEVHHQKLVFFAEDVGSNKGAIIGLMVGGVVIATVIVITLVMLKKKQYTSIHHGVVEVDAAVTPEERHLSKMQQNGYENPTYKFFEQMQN
Sequence of Ribosomal protein S6 kinase alpha-1 (Q15418 whole entry): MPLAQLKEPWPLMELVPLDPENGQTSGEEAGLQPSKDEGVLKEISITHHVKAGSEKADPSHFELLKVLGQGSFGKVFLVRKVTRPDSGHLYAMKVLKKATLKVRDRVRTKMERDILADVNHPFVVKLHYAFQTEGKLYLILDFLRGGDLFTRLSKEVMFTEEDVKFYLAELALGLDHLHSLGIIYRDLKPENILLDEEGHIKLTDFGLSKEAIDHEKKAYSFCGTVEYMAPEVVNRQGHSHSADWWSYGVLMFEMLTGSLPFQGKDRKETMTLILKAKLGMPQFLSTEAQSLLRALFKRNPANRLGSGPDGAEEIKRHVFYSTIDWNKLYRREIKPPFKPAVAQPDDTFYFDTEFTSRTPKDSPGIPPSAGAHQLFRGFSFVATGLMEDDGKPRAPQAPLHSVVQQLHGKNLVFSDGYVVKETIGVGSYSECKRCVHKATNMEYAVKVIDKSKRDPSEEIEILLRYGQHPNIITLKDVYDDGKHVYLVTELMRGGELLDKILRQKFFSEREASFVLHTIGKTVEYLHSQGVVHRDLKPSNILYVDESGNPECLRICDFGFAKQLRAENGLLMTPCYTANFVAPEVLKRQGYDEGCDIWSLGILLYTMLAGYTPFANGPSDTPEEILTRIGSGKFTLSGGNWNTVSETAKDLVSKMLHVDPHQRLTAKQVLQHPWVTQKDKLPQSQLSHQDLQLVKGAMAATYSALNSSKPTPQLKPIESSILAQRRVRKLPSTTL
Sequence of Prostaglandin G/H synthase 2 (P35354 whole entry): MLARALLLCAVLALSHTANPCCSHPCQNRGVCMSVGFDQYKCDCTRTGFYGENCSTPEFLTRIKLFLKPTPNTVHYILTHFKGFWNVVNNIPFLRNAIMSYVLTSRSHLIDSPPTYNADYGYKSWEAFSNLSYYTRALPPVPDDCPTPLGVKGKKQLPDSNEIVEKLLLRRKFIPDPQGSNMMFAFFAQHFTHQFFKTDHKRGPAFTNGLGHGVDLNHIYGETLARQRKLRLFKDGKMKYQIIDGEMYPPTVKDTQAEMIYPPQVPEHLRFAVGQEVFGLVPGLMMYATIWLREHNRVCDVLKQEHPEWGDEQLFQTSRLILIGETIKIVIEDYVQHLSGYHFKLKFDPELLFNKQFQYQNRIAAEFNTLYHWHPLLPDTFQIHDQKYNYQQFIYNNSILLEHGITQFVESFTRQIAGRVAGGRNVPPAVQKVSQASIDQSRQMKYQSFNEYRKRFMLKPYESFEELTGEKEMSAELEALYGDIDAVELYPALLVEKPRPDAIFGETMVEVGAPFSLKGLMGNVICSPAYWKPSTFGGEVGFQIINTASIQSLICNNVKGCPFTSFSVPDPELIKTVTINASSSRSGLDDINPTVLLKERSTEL
Sequence of Aldo-keto reductase family 1 member C3 (P42330 whole entry): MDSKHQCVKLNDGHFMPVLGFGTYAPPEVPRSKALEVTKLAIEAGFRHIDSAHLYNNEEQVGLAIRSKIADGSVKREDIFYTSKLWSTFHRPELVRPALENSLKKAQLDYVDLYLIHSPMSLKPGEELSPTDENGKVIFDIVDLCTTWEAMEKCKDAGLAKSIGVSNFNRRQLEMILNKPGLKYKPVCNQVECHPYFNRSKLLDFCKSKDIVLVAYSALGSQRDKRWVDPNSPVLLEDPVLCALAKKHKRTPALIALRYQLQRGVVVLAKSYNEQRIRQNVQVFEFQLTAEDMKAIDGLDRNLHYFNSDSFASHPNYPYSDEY
Sequence of Prostaglandin G/H synthase 1 (P23219 whole entry): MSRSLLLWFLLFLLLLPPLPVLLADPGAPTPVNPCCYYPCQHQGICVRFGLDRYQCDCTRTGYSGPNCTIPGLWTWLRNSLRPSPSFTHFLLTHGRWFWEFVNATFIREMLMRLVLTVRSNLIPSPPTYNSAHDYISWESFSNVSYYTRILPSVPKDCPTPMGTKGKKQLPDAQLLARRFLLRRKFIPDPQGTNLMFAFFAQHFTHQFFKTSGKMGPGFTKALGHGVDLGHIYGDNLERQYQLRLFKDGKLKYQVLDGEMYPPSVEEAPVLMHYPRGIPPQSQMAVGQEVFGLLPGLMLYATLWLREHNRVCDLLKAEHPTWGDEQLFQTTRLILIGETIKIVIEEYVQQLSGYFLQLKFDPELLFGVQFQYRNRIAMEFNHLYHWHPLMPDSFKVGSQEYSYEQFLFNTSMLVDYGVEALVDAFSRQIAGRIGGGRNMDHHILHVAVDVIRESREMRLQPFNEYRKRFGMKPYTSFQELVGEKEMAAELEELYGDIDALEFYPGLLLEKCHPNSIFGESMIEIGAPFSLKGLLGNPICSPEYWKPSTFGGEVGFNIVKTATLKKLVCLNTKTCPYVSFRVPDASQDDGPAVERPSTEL
Sequence of Caspase-3 (P42574 29-175 limits assumed): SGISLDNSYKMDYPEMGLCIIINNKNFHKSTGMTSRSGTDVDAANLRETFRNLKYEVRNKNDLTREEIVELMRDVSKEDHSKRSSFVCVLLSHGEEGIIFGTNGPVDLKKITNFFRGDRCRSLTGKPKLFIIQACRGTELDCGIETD
Sequence of Caspase-3 (P42574 176-277 limits assumed): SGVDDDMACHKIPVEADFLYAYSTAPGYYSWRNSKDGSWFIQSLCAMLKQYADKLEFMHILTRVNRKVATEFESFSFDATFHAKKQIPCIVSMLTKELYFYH
Sequence of Caspase-7 (P55210 24-198 limits assumed): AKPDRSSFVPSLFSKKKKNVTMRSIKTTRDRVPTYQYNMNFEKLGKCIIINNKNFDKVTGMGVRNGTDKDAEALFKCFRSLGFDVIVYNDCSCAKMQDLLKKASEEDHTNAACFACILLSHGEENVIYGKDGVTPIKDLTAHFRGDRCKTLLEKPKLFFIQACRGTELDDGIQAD
Sequence of Caspase-7 (P55210 207-303 limits assumed): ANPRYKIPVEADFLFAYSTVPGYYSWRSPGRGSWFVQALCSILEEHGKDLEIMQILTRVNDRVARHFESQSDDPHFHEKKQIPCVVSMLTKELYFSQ
Sequence of Caspase-1 (P29466 120-297 limits assumed): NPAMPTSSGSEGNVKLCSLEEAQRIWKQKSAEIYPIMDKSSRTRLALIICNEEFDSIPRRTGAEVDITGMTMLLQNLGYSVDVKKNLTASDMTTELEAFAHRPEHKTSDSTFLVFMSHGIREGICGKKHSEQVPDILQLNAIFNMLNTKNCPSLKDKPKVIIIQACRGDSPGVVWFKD
Sequence of Caspase-1 (P29466 317-404 limits assumed): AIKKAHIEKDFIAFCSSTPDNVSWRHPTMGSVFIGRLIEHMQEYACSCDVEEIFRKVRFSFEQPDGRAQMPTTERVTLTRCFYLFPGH
Sequence of Caspase-8 (Q14790 217-374 limits assumed): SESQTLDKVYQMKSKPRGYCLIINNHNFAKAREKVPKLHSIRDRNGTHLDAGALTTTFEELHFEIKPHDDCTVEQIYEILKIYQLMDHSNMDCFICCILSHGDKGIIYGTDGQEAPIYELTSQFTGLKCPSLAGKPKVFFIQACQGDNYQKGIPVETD
Sequence of Caspase-8 (Q14790 385-479 limits assumed): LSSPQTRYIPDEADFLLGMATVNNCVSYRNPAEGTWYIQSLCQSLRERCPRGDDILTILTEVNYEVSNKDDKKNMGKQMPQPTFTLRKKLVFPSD

Compound: O=[N+]([O-])c1c(Nc2cc(F)cc(Cl)c2)ccc2nonc12
IC50 [4]: 100 nM | Kd [5]: 80 nM | logP [6]: 3.99

Compound: CCn1c(-c2nonc2N)nc2cnc(Oc3cccc(NC(=O)c4ccc(OCCN5CCOCC5)cc4)c3)cc21 [GSK-269962A]
Activity [7]: 0 mmHg | Activity [8]: 10 bpm | Activity [9]: -20 mmHg | Activity [10]: 30 bpm | Activity [11]: 0 bpm

Compound: O=C(O)[C@H](CC1CCC1)c1cc(Cl)c(OCC(F)(F)F)c(-c2ccc(C(F)(F)F)cc2)c1
EC50 [12]: 70 nM

Compound: Cc1ccc(Cl)cc1Nc1ccc([N+](=O)[O-])c2nonc12
EC50 [13]: 1800 nM | IC50 [14]: 6.3 µM

Compound: O=c1[nH]ccc2cc(OC3CCNCC3)ccc12 [SAR-407899 FREE BASE]
IC50 [16]: 122 nM | Activity [17]: -6 mmHg | Activity [18]: -19 mmHg

Compound: OC(c1cccc(-c2cc(N3CCCC3)c3nonc3c2)c1)C(F)(F)F (configuration not stated)
inhibition [15]: 88.9%

Compound: O=C(Nc1nonc1-c1ccc(Cl)cc1)c1ccc(C(F)(F)F)cc1
EC50 [19]: 1300 nM

Compound: O=C1OCc2cc(CCN3CCN(CCc4ccc5nonc5c4)CC3)ccc21
IC50 [25]: 2200 nM

Compound: CC1(C)CC[C@]2(C(=O)O)CC[C@]3(C)C(=CC[C@@H]4[C@@]5(C)CC[C@H](O)C(C)(C)[C@@H]5CC[C@]43C)[C@@H]2C1 [OLEANOLIC_ACID]
EC50 [20]: > 1000 nM | EC50 [21]: > 100000 nM | EC50 [22]: > 1000 nM | half-life [23]: 42 min

Continued, in another order:

IC50 [1]: 1900 nM | IC50 [2]: 270 nM | IC50 [3]: 155 nM
Compound: CCn1c(-c2nonc2N)nc2cncc(CNC3CCNCC3)c21

inhibition [15]: 66.3%
Compound: CC(O)c1cccc(-c2cc(NCc3ccccc3)c3nonc3c2)c1 (configuration not stated)

IC50 [1]: 33 nM | IC50 [2]: 70 nM | IC50 [3]: 24 nM
Compound: CCn1c(-c2nonc2N)nc2cnccc21

EC50 [19]: 2500 nM
Compound: O=C(Nc1ccc(C(F)(F)F)cc1)Nc1nonc1-c1ccc(Cl)cc1

EC50 [20]: 290 nM | EC50 [21]: 780 nM | half-life [23]: 90 min
Compound: CC1(C)CC[C@]2(C(=O)O)CC[C@]3(C)C(=CC[C@@H]4[C@@]5(C)Cc6nonc6C(C)(C)[C@@H]5CC[C@]43C)[C@@H]2C1
EC50 [22]: > 210 nM

EC50 [24]: > 100000 nM
Compound: CC(=O)N[C@@H](CC(=O)O)C(=O)N[C@@H](CCC(=O)O)C(=O)N[C@H](C(=O)N[C@H](C=O)CC(=O)O)C(C)C

pKa [26]: 4.09 | IC50 [27]: > 100 µM | EC50 [28]: 78.9 µM | logD [29]: 1.8 | IC50 [30]: 300 nM | IC50 [31]: > 100 µM | EC50 [32]: 141 µM | EC50 [33]: 135 µM
Compound: COc1ccc2c(c1)c(Cc1nonc1O)c(C)n2C(=O)c1ccccc1

IC50 [34]: 67 nM | IC50 [35]: 6 nM | IC50 [36]: 42 nM | concentration at 24 h [37]: 100 nM | half-life [38]: 180 min | EC50 [24]: 21 nM | IC50 [39]: 6.48 µM | Cmax [40]: 32.2 µM | concentration at 6 h [41]: 5.1 µM
Compound: CCCCCCN(C)CC(=O)C(CC(=O)O)NC(=O)[C@H](CC)n1cc(C(C)(C)C)nc(NCc2nonc2C)c1=O (some centres not stated)

Ki [42]: 2 nM
Compound: CN(C)Cc1ccc(CSCCNc2nonc2NCCCc2ccccc2)o1
